{"source": "patent US20040248766A1", "about": "“Selective inhibition of intracellular amyloid-beta neurotoxicity in human neurons” (priority 2001, published 2004)", "key": {"[1]": {"system": "Aβ1-42-mediated neuronal cell death", "assay": "Inhibition of Aβ1-42-mediated neuronal cell death in Aβ1-42-microinjected neurons, TUNEL", "assay_type": "cell-based, human", "settings": "1 hour pre-incubation, 24 hours; for inhibition of the Aβ1-42-induced cell death / prevention of Aβ1-42-induced neuronal cell death (in words): 5 μM inhibitor; for block of Aβ1-42-induced neuronal death (in words): 5 μg/ml cycloheximide or 5 μM actinomycin D", "protocol": "cDNA Clones. Human Bcl-2 cDNA, Bax α cDNA, and APP695 cDNA were cloned into pCep4β (Invitrogen Canada, Burlington, ON, Canada). The p53 wild type and p53R273H dominant negative cDNA may be cloned in the pCMV-NEO vector. These cDNAs were purified through GlassMAXTM (Gibco-BRL, Rockville, Mass.) and diluted at 30 ng/μl in PBS before injection.\nNeutralizing Bax antibodies. Monoclonal anti-Bax 6A7 (amino acids 12-24: Pharmingen, San Diego, Calif.) and 2D2 (amino acids 3-16: Trevigen, Gaithersburg, Md.), polyclonal anti-Bax N-20 (Santa Cruz Biotechnology, Santa Cruz, Calif.), monoclonal anti-APP 22C11 (Roche Molecular Biochemicals, Laval, PQ, Canada), mouse IgG or rabbit sera were diluted at 50 μg/ml (for 6A7, 2D2, mouse IgG and 22C11) or 25 μg/ml (for polyclonal anti-Bax and rabbit sera) in PBS before use. A toxicity curve was done to determine this concentration as the highest non-toxic concentration that can be injected in neurons.\n(§1) Microinjection. Thin-walled Borosilicate glass capillaries (OD 1.0 mm, ID 0.5 mm) with microfilament (MTW1OOF-4, World Precision Instrument, Sarasota, Fla.) were pulled with a Flaming/Brown Micropipefte Puller (β-87, Sutter, Novato, Calif.) to obtain injection needles with a tip diameter of ˜0.5 μm. Microinjection was performed in the cytosol of each cell using the Eppendorf Microinjector 5246 (Hamburg, Germany) and Burleigh Micromanipulator MIS-5000 (Victor, N.Y.). Human neurons were injected with 25 pl/shot at an injection pressure of 100 hPa, a compensation pressure of 50 hPa, and an injection time of 0.1 s. Human astrocytes, M17, NT2 and La—N-1 cells were injected with 8 pl/shot at an injection pressure of 50 hPa, a compensation pressure of 30 hPa and an injection time of 0.1 s.\n(§2) Measurement of neuronal apoptosis. Cells were fixed in freshly prepared 4% paraformaldehyde/4% sucrose for 20 minutes at room temperature and permeabilized in 0.1% Triton X-100, 0.1% sodium citrate on ice for 2 minutes. Terminal deoxynucleotidyl transferase-mediated dUTP nick end labeling (TUNEL) was performed using the In Situ Cell Death Detection Kit I as described by the manufacturer (Roche Molecular Biochemicals). The percentage of cell death was determined as the ratio of the number of DTR-TLUNEL-double-positive cells over the total number of DIR-positive cells.\nTreatment with caspase inhibitors, cycloheximide, actinomycin D. Caspase pan inhibitor, Z-Valine-Alanine-Aspartic acid-fluoromethylketone (Z-VAD-fmk) (Biomol, Plymounth Meeting, PA); caspase-6 inhibitor, Z-Valine-Glutamic acid-Isoleucine-Aspartic acid-fmk (Z-VEID-fnk); caspase-3 inhibitor, Z-Aspartic acid-Glutamic acid-Valine-Aspartic acid-fmk (Z-DEVD-fmk); and caspase-8 inhibitor, Z-Isoleucine-Glutamic acid-Threomine-Aspartic acid-fmk (Z-IETD-fmk) (Sigma, Oakville, ON, Canada) were dissolved in 100% dimethylsulphoxide (DMSO, Sigma) at 5 mM and were diluted at 5 μM into culture medium immediately before use. The medium was changed every 48 hours.\nStock solutions of 5 mg/ml cycloheximide and 200 IM actinomycin D were made in sterile distilled water and diluted to 5 μg/ml for cycloheximide and 5 μM for actinomycin D in the culture medium immediately before use.\nDextran Texas Red (DTR) was co-injected with Aβ1-42 to identi the injected cells from the non-injected cells. The experiment was done on 200 microinjected neurons per preparation of neurons and on three independent neuron preparations."}, "primary human neurons": {"system": "primary human neurons", "assay": "Microinjection of Aβ peptides into the cytosol of primary human neurons, cell death by TUNEL", "assay_type": "cell-based", "settings": "for intracellular toxicity to human neurons (in words): peptide microinjected into cytosol; for neuronal cell death (in words): fibrillized or non-fibrillized preparation, 10 nM, 24, 48 and 96 hours", "protocol": "Cell cultures. Primary cultures of human neurons and astrocytes were prepared as described in LeBlanc, A., J. Neurosci. 15:7837-46 (1995), incorporated herein by reference. Fresh brain tissues were dissociated with 0.25% trypsin (Gibco-BRL) in phosphate buffered saline (PBS) at 37° C. for 15 minutes. The trypsin was inactivated. by adding 10% decomplemented fetal bovine serum (FBS, HyClone, Logan, Utah.) to the mixture. The dissociated tissues were triturated in 0.1 mg/ml DNaseI (Gibco-BRL) to obtain a homogeneous mixture. The mixture was filtered successively through 130 and 70 gm filters and centrifuged at 15,000 g for 10 minutes at 10° C. to pellet the cells. The cell pellet was washed once with PBS and once with minimal essential media (MEM, Gibco-BRL) in Earle's balanced salt solution containing 0.225% sodium bicarbonate, 1 mM sodium pyruvate, 2 mM L-glutamine, 0.1% dextrose, 1×antibiotic Pen-Strep (all from Gibco-BRL) and 5% decomplemented FBS.\nThe cells were plated on poly-L-lysine-coated ACLARTM (Cat. No.: 33C; thickness: 0.5 mm; Allied Chemical, Minneapolis, Minn.) coverslips at a density of 3×10^6 cells/ml. Neurons and astrocytes were incubated at 37° C. in the MEM media with 5% CO2, and the media were changed every 48 hours. For neuron culture, 1 mM fluorodeoxyuridine (FDU, Gibco-BRL) was applied for the first 3 feedings and after that, used weekly to prevent proliferation of dividing cells. […] Microinjection or treatment was performed 10 days after plating for neurons and astrocytes.\nAβ peptides. Aβ peptides (Bachem, King of Prussia, Pa.) were dissolved in sterile distilled water at 25 μM and incubated at 37° C. for 5 days. The peptides stock solutions were frozen and diluted in 1×PBS immediately before microinjection. […] A 250 μl aliquot was diluted to 0.25 μM and immediately frozen at −20° C. in aliquots of 50 μl. The remaining solution was incubated at 37° C. in Eppendorf tubes with continuous mixing by inversion. After incubation, the samples were removed, vortexed, sonicated twice for 1 minute in a bath type sonicator (ELMA GmbH & Co. KG, Germany) and frozen at −20° C. in […]. Each aliquot was used once to avoid possible effects of freeze and thaw cycles.\nas §1\nThe diluted peptides were injected at the indicated concentrations with 100 μg/ml dextran Texas Red (DTR) (MW: 3000, Molecular Probes, Eugene, Oreg.) as a fluorescent marker to recognize the injected cells.\nas §2, with “Biochemicals).” for “Biochemicals). The percentage of cell death was determined as the ratio of the number of DTR-TLUNEL-double-positive cells over the total number of DIR-positive cells.”"}, "human neurons": {"system": "human neurons", "assay": "Exposure of human neurons to extracellular Aβ peptides, TUNEL and propidium iodide", "assay_type": "cell-based", "settings": "10 μM extracellular, 24 hours", "protocol": "To test if this particular batch of peptide might be neurotoxic, neurons were treated with 10 μM of peptides for 24 hours."}}, "note": "Entries after “also recorded” stand apart in the source; their conditions may differ. Numbered stars: 1 amine (or outer) side, 2 acyl side, 3 side chain; on linkers, the order of the positions; unused ones are H or OH. Bridge positions count the residues as written; N and C are the ends. Square brackets hold non-standard residues; d marks the D form. Peptide text beside a SMILES is read from it. I, II: the chains in the order shown. * marks the point of attachment. Actinocin(9to1) = Cc1c2oc3c(C)ccc(C(=O)[*:1])c3nc-2c(C(=O)[*:2])c(N)c1=O; NMeV = CN[C@H](C(=O)O)C(C)C; Cbz = O=C(OCc1ccccc1)*; Sar = CNCC(=O)O; CH2F = FC*"}
{"compound": "CC(C)[C@H](NC(=O)[C@H](CCC(=O)O)NC(=O)[C@H](CC(=O)O)NC(=O)OCc1ccccc1)C(=O)N[C@@H](CC(=O)O)C(=O)CF", "note": "[Z-DEVD-fmk, Z-Aspartic acid-Glutamic acid-Valine-Aspartic acid-fmk]", "values": [{"measurement": "inhibition of the Aβ1-42-induced cell death", "setting": "[1]", "value": 30, "unit": "%"}]}
{"compound": "CC[C@H](C)[C@H](NC(=O)OCc1ccccc1)C(=O)N[C@@H](CCC(=O)O)C(=O)N[C@H](C(=O)N[C@@H](CC(=O)O)C(=O)CF)[C@@H](C)O", "note": "[Z-IETD-fmk, Z-Isoleucine-Glutamic acid-Threomine-Aspartic acid-fmk] (Cbz-IETD-CH2F)", "values": [{"measurement": "prevention of Aβ1-42-induced neuronal cell death (in words)", "setting": "[1]", "value": "completely prevents"}]}
{"compound": "COC(=O)C[C@H](NC(=O)[C@H](C)NC(=O)[C@@H](NC(=O)OCc1ccccc1)C(C)C)C(=O)CF", "note": "[Z-VAD-fmk, Z-Valine-Alanine-Aspartic acid-fluoromethylketone] (Cbz-Val-Ala-Asp(OMe)-CH2F)", "values": [{"measurement": "prevention of Aβ1-42-induced neuronal cell death (in words)", "setting": "[1]", "value": "completely prevents"}]}
{"compound": "COC(=O)C[C@H](NC(=O)[C@H](C)NC(=O)[C@@H](NC(=O)[C@H](Cc1ccc(O)cc1)NC(=O)OCc1ccccc1)C(C)C)C(=O)CF", "note": "[Z-YVAD-fmk]", "values": [{"measurement": "inhibition of the Aβ1-42-induced cell death", "setting": "[1]", "value": 30, "unit": "%"}]}
{"compound": "Cc1c2oc3c(C)ccc(C(=O)N[C@@H]4C(=O)N[C@H](C(C)C)C(=O)N5CCC[C@H]5C(=O)N(C)CC(=O)N(C)[C@@H](C(C)C)C(=O)O[C@@H]4C)c3nc-2c(C(=O)N[C@@H]2C(=O)N[C@H](C(C)C)C(=O)N3CCC[C@H]3C(=O)N(C)CC(=O)N(C)[C@@H](C(C)C)C(=O)O[C@@H]2C)c(N)c1=O", "note": "[actinomycin D] (I: T[dV]P[Sar][NMeV] / II: T[dV]P[Sar][NMeV]; ester I:1-I:C, II:1-II:C; linker I:N-II:N via Actinocin(9to1))", "values": [{"measurement": "block of Aβ1-42-induced neuronal death (in words)", "setting": "[1]", "value": "efficiently block"}]}
{"compound": "C[C@@H]1C[C@@H]([C@H](O)CC2CC(=O)NC(=O)C2)C(=O)[C@@H](C)C1", "note": "[cycloheximide]", "values": [{"measurement": "block of Aβ1-42-induced neuronal death (in words)", "setting": "[1]", "value": "efficiently block"}]}
{"compound": "Aβ1-40: 40 amino acid amyloid β peptide (SEQ ID NO: 1)", "values": [{"measurement": "effect on cell viability", "setting": "primary human neurons; 10 nM aged peptide, between 24 and 96 hours", "value": "do not affect cell viability"}, {"measurement": "cell death of microinjected neurons", "setting": "primary human neurons; 10 nM aged peptide, sixteen days after injection", "value": 50, "unit": "%"}, {"measurement": "intracellular toxicity to human neurons (in words)", "setting": "primary human neurons", "value": "not observed to be toxic; also recorded: significant apoptosis only 16 days after microinjection"}, {"measurement": "toxicity of extracellular peptide (in words)", "setting": "human neurons", "value": "do not undergo cell death; also recorded: Neither extracellular Aβ1-40, Aβ1-42, or Aβ40-1 are toxic"}]}
{"compound": "Z-Valine-Glutamic acid-Isoleucine-Aspartic acid-fmk [Z-VEID-fmk]", "values": [{"measurement": "prevention of Aβ1-42-induced neuronal cell death (in words)", "setting": "[1]", "value": "completely prevents"}]}
{"compound": "fibrillized Aβ1-40: Aβ1-40 incubated at 37° C. with mixing", "values": [{"measurement": "neuronal cell death (in words)", "setting": "primary human neurons", "value": "neither fibrillized nor non-fibrillized Aβ1-40 cause significant cell death"}]}
{"compound": "non-fibrillized Aβ1-40: disaggregated Aβ1-40 diluted and immediately frozen", "values": [{"measurement": "neuronal cell death (in words)", "setting": "primary human neurons", "value": "neither fibrillized nor non-fibrillized Aβ1-40 cause significant cell death"}]}
{"compound": "non-fibrillized Aβ1-42: disaggregated Aβ1-42 diluted and immediately frozen", "values": [{"measurement": "intracellular toxicity to human neurons (in words)", "setting": "primary human neurons", "value": "as neurotoxic as fibrillized"}]}
